{
  "source": "patent US20090215025A1",
  "about": "“SMALL PEPTIDIC AND PEPTIDO-MIMETIC AFFINITY LIGANDS FOR FACTOR VIII AND FACTOR VIII-LIKE PROTEINS” (TECHNISCHE UNIVERSITAT MUNCHEN, priority 2005, published 2009)",
  "key": {"[1]": {"target": "T1, Kogenate® (recombinant form of FVIII) (Homo sapiens, UniProt P00451)", "T1 construct": "purchased Bayer; host or cells: baby hamster kidney (BHK) cells", "T1 sequence (P00451 20-1667 limits assumed, one chain of several)": "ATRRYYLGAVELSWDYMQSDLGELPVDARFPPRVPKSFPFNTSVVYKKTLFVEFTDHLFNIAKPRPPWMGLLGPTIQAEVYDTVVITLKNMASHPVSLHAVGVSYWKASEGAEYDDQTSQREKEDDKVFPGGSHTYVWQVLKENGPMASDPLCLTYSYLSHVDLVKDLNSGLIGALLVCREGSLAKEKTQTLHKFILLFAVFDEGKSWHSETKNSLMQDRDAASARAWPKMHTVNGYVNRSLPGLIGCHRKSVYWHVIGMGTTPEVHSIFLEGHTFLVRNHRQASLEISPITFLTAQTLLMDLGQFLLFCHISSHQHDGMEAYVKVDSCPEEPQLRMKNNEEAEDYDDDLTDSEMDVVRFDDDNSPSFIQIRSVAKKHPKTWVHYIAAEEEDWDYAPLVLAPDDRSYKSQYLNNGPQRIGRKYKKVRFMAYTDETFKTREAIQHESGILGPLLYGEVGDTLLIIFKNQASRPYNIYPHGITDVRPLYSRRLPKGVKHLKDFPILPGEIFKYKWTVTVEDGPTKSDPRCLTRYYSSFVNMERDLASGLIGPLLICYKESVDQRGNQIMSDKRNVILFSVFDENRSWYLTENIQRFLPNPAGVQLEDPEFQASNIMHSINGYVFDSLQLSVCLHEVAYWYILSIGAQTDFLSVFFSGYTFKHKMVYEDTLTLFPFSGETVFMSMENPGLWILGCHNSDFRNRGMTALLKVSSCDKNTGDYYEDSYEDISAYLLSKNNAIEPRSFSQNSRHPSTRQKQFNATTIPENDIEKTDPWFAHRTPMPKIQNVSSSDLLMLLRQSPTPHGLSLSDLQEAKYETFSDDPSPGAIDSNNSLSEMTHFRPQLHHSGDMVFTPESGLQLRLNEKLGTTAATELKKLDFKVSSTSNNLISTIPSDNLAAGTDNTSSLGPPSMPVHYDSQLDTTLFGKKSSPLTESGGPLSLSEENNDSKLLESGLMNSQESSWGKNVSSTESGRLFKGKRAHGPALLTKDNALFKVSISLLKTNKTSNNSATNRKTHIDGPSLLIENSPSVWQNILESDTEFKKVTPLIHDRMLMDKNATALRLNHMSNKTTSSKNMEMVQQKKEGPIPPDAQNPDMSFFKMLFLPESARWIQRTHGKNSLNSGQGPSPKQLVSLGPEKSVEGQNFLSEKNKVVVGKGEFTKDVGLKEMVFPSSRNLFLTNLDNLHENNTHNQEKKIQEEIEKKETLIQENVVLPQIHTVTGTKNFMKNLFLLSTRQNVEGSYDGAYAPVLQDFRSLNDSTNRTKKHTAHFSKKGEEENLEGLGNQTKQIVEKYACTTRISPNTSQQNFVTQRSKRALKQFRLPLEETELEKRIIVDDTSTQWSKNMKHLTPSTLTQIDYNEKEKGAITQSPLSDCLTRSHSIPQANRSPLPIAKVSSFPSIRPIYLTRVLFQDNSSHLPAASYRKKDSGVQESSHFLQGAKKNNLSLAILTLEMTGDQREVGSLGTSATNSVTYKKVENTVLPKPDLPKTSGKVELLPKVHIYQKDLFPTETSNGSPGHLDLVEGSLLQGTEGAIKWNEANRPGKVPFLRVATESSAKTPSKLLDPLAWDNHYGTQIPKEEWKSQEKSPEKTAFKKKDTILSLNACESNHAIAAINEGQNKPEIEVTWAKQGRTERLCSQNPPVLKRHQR", "test": "Binding of 125I-Kogenate to peptide-coated resin", "settings": "resin coated with peptide", "description": "(§1) The resin with immobilized peptides was washed in the binding buffer (0.01 M Hepes, 0.1 M NaCl, 5 mM CaCl2, 0.01% Tween-80). Subsequently, the resin was diluted in the binding buffer as 1:7 slurry and aliquoted into Eppendorf tubes (40 μl per tube). ^125I-pd-FVIII (100000 cpm in 10 μl) was added to the tubes and the volume of the mixture was adjusted to 100 μl by adding 50 μl of the binding buffer containing 4% BSA to give a 2% final concentration of BSA. After 2 hours of incubation at room temperature on a rotator, the samples were washed 4 times in the binding. […] After four washes the tubes with pellet without supernatant were counted for radioactivity. The resin without peptide was processed similarly to account for non-specific pd-FVIII binding to tubes and resin itself, and the radioactivity in this control tube was considered as a background value. Since ^125I-pd-FVIII contains the some fraction damaged during radiolabeling, binding was calculated as a percent of maximal achievable binding, determined in separate experiment with anti-FVIII Mab 8860-coated resin. […]\n(§2) Kogenate® and ReFacto® were iodinated in the same manner as described in Example 1 with respect to the pd-FVIII. Protein binding was measured using the same procedures as described in Example 1 above."}, "[2]": {"target": "T2, ReFacto® (recombinant form of FVIII) (Homo sapiens, UniProt P00451, DEL763-1656)", "T2 construct": "purchased Wyeth-Ayerst Pharmacia and Upjohn; host or cells: CHO cells", "T2 sequence (P00451 with tags, fused parts or gaps DEL763-1656 limits assumed)": "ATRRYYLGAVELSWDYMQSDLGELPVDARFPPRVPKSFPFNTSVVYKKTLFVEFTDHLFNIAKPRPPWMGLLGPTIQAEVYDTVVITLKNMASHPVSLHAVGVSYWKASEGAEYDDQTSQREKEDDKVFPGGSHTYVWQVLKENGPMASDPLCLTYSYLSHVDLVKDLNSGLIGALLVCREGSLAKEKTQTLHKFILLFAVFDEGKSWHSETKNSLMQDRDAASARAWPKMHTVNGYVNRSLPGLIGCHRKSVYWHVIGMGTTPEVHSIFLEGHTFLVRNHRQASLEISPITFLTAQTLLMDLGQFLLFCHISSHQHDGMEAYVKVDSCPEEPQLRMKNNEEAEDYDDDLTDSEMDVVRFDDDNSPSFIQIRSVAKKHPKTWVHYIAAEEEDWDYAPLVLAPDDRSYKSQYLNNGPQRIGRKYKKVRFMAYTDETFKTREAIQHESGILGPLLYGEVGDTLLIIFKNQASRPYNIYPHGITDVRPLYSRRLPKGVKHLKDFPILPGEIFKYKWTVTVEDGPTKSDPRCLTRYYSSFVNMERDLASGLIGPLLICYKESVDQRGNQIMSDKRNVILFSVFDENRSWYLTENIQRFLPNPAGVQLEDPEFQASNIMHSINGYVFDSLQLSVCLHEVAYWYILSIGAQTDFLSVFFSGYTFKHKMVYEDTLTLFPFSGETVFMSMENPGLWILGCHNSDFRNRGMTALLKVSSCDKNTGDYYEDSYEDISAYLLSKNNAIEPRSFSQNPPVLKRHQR", "T2 sequence (P00451 1668-2351 limits assumed)": "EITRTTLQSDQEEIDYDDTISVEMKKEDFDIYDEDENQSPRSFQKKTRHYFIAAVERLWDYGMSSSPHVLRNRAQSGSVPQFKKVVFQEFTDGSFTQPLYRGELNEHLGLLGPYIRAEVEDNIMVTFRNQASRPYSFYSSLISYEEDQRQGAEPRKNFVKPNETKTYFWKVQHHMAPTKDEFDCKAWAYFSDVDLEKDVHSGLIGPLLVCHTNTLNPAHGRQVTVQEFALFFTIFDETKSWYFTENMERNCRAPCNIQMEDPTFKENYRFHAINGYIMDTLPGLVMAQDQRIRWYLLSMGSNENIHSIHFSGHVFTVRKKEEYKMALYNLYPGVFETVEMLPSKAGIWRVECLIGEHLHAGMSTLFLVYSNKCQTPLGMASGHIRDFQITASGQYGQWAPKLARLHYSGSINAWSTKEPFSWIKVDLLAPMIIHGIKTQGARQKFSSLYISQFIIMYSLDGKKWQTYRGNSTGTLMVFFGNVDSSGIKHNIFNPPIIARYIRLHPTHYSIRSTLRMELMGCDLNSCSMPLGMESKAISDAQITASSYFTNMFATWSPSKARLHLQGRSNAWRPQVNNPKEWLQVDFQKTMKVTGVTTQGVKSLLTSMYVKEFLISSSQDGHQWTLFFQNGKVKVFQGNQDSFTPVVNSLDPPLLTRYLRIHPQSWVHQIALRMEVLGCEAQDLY", "test": "Binding of 125I-ReFacto to peptide-coated resin", "settings": "resin coated with peptide", "description": "as §1, §2"}, "[3]": {"target": "T3, plasma-derived (pd-) human Factor VIII (FVIII) (Homo sapiens, UniProt P00451)", "T3 construct": "from tissue; host or cells: human blood plasma (FVIII concentrate)", "T3 sequence (P00451 20-1667 limits assumed, one chain of several)": "as the sequence (P00451 20-1667 limits assumed, one chain of several) above", "test": "Binding of 125I-labeled pd-FVIII to peptides immobilized on Toyopearl AF-Epoxy-650M resin (micro-beads assay)", "settings": "Table 1", "description": "Peptides P1 to P25 were immobilized on the Toyopearl AF-Epoxy-650M resin (Tosoh Biosep) as described by Jungbauer et al. For immobilization, 2.5 mg of each peptide was dissolved in 0.25 mL of the immobilization buffer (0.2 M sodium bicarbonate, pH 10.3), and 0.036 g of the dry resin powder (corresponding to 0.125 mL of swollen resin) was added, followed by incubation of the mixture with gentle rotation for 48 hours. Upon incubation for 48 hours the resin was washed once with immobilization buffer, once with 1 M NaCl and then 3 times with binding buffer, and binding of ^125I-labeled pd-FVIII to the peptide-coated and control resin was tested. The coupling density of each peptide in each of the reported experiments was as mentioned in Table 1. The control 0.25 mL portion of the resin was similarly treated in parallel experiment in the absence of peptide and was subsequently used as a control (designated as Background) in ^125I-pd-FVIII binding experiments. ^125I-pd-FVIII Bound/Background ratios were calculated as the amount of ^125I-pd-FVIII, bound to an immobilized peptide, divided by that bound to uncoated control resin, prepared as described above. This ratio represents a Signal/Noise ratio for the micro-beads assay, since ^125I-pd-FVIII bound to peptide represents the signal value and ^125I-pd-FVIII bound to peptide-uncoated resin represents the background (noise) value.\nPlasma-derived (pd-) human Factor VIII (FVIII) was purified from concentrate by immunoaffinity chromatography on an anti-FVIII monoclonal antibody column followed by subsequent concentration of pd-FVIII by ion-exchange chromatography using Resource Q HR5/5 column. To separate FVIII from vWf, concentrate was incubated in 0.35 M NaCl, 0.04 M CaCl2, prior to affinity purification.\nTrace amounts of vWf, which are potentially present in pd-FVIII preparation, were removed by passing pd-FVIII preparation through the column with anti-vWf high affinity monoclonal antibody, immobilized at the density 1.4 mg per mL of resin.\nTen μg of purified pd-FVIII were iodinated using lactoperoxidase beads and 0.5 mCi of Na^125I.\nThe resin with immobilized peptides was washed in the binding buffer (0.01 M Hepes, 0.1 M NaCl, 5 mM CaCl2, 0.01% Tween-80). Subsequently, the resin was diluted in the binding buffer as 1:7 slurry and aliquoted into Eppendorf tubes (40 μl per tube). ^125I-pd-FVIII (100000 cpm in 10 μl) was added to the tubes and the volume of the mixture was adjusted to 100 μl by adding 50 μl of the binding buffer containing 4% BSA to give a 2% final concentration of BSA. After 2 hours of incubation at room temperature on a rotator, the samples were washed 4 times in the binding. After each wash the tubes were centrifuged at 5000 rpm for 1 min in an Eppendorf microcentrifuge, supernatant was discarded, and the resin was re-suspended in the washing buffer, followed by centrifugation under the same conditions. After four washes the tubes with pellet without supernatant were counted for radioactivity. The resin without peptide was processed similarly to account for non-specific pd-FVIII binding to tubes and resin itself, and the radioactivity in this control tube was considered as a background value. Since ^125I-pd-FVIII contains the some fraction damaged during radiolabeling, binding was calculated as a percent of maximal achievable binding, determined in separate experiment with anti-FVIII Mab 8860-coated resin.\nAll the measurements were performed in duplicates. Each experiment was performed using two independently prepared immobilized peptide samples. The data presented in each figure are the mean values of the four determinations: duplicate determination in the two assays performed with beads on which peptides were independently immobilized on the different days. […]"}},
  "data": [
    {"substance": "IAA-Glu-Tyr-Cys-OH [Compound P15]", "values": [
      {"measurement": "125I-Kogenated FS binding (% of total)", "setting": "[1]", "result": "49.6 ± 1.7 % of total"},
      {"measurement": "125I-ReFacto binding (% of total)", "setting": "[2]", "result": "54.9 ± 6.3 % of total"},
      {"measurement": "Binding, rel. to control", "setting": "[3]; 125I-pd-FVIII Bound/Background ratio versus uncoated control resin", "result": "39.3 ± 0.3"},
      {"measurement": "% Binding pdFVIII", "setting": "[3]; immobilized on Toyopearl AF-Epoxy-650M, percent of maximal achievable binding (anti-FVIII Mab 8860-coated resin), mean of four determinations", "result": "75.4 ± 0.6", "unit": "%"}
    ]}
  ]
}
